# Test results taken from PMC13234881, “Synthesis and Cytotoxicity of Complex Betulinic Acid Amides” (ACS Omega, 2026).
# Key:
# [1] = test system: cervical carcinoma HeLa; test: Cytotoxicity screening test, HeLa; assay type: cell-based; conditions: Homo sapiens; HeLa cervical cancer, 72 h; read-out: Cytotoxicity IC50 ± SD, HeLa
# Text: (§1) The screening cell lines, T-lymphoblastic leukemia CCRF-CEM, breast carcinoma MCF7, cervical carcinoma HeLa, and human foreskin fibroblasts BJ, were obtained from the American Type Culture Collection (Manassas, VA, USA). The procedure for cell culturing has already been described. ,
# [2] = test system: breast carcinoma MCF7; test: Cytotoxicity screening test, MCF7; assay type: cell-based; conditions: Homo sapiens; MCF7 breast adenocarcinoma, 72 h; read-out: Cytotoxicity IC50 ± SD, MCF7
# Text: as §1
compound,measurement,setting,value
COc1cccc2c1C(=O)c1c(O)c3c(c(O)c1C2=O)C[C@@](O)(C(=O)CO)C[C@@H]3O[C@H]1C[C@H](N)[C@H](O)[C@H](C)O1 [doxorubicin],IC50,[1],0.868 ± 0.054 µM
same,IC50,[2],0.273 ± 0.019 µM
